For 17 compounds, EC50 and IC50 results are on record in patent publication US8178534B2, “cMET inhibitors” (Takeda Pharmaceutical Company Limited, priority 2008, dated 2012).

Counter-ions that a name gives are not always drawn. Some results are limits rather than exact numbers.

One assay relates to MKN45. In words: Inhibition of cell viability (MTS), MKN45. The format is cell-based. Conditions: MKN45 cells, 96 hours incubation. As to the method: (§1) Cells were maintained at 37° C. in a humidified atmosphere containing 5%-8% CO2 following the instructions of the supplier (American Type Culture Collection (Rockville, Md.)). Inhibition of cell viability was determined for a panel of tumor cell lines (MKN45, EBC1 and A549), using the soluble tetrazolium salt, MTS (Promega, Madison, Wis.). Cells were seeded at 2,000-7,500 cells/well in 96-well tissue culture plates and were allowed to attach for approximately 24 hours prior to addition of compounds or DMSO vehicle. […] Cells were treated in duplicate with test compounds. Compounds were serially diluted (1:2.5) from column 1 to 11 and column 12 contained DMSO vehicle. Compounds were diluted into cell growth medium then compound solution was added to cells. Equal amounts of DMSO were added to cells (final concentration is 0.5%). After background correction and normalization against DMSO-treated cells, EC50 values were calculated using non-linear curve-fitting of the cell viability as a function of compound concentration. The MKN45 and EBC1 cell lines contain high levels of phospho-Met and are dependent on cMET for proliferation, whereas the A549 line is used as negative control.
(§2) EC50 values may be calculated by non-linear curve fitting of the compound concentrations and fluorescence intensities to the standard EC50 equation.

Another assay deals with A549. In words: Inhibition of cell viability (MTS), A549 (negative control line). In kind it is cell-based. The following applies: A549 cells (negative control), 96 hours incubation. On the procedure:
as §1, §2

The target in assay [1] is T1, cMET enzyme (amino acids 1023-1360) (Homo sapiens, UniProt P08581).
T1 construct: The cMET enzyme (amino acids 1023-1360) nominally at 24 μM was held at −80° C. until use; His tag (N, cleaved yes); made in house; host or cells: Sf9 cells
T1 sequence (P08581 1023-1360): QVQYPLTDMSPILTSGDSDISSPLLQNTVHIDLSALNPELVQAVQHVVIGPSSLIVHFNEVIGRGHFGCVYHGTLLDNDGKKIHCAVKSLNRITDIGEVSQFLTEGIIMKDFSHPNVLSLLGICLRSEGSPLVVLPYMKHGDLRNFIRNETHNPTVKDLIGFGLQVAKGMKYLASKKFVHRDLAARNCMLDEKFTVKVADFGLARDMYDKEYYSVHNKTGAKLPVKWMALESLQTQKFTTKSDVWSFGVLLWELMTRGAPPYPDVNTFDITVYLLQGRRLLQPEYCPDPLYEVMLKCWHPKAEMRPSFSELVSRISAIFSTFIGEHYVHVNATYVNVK
The experiment in a line: Determination of inhibition of cMET (capillary electrophoresis, phosphorylated peptide product). The format is biochemical. The following applies: 1.2 nM cMET, 50 μM ATP, 2 μM FL-2 peptide, 2 hours room temperature. On the procedure: The inhibitory property of a compound relative to cMET catalysis was determined by use of capillary electrophoresis with fluorescence quantification of a phosphorylated peptide product for cMET. The cMET enzyme (amino acids 1023-1360) nominally at 24 μM was held at −80° C. until use, in a buffer containing 25 mM Tris-HCl pH 8.5, 150 mM NaCl, 3 mM DTT and 10% glycerol. […] Following purification, the tag was removed and enzyme concentrated. […] To activate the enzyme fully, frozen cMET was thawed quickly and activated with the addition of assay buffer (50 mM HEPES pH 7.5, 10 mM NaCl, 10 mM MgCl2, 0.01% Brij® 35), 1.25 mM ATP, 5 mM MgCl2 and 5 mM DTT at a cMET concentration of 2.4 μM followed by a 30 minute incubation at room temperature. […] Next, cMET enzyme (1.2 nM final) was added and the system incubated at room temperature for 20 minutes. Catalysis was initiated by the addition of ATP (50 μM final). Assays were incubated at room temperature for 2 hours then quenched by the addition of EDTA. Phosphorylated peptide product was quantified by monitoring fluorescence during capillary electrophoresis with Caliper LifeSciences LabChip 3000 under the following settings: base pressure=−0.1 psi, screen pressure=−1.2 psi, downstream voltage=−500 V, upstream voltage=−2300 V, chip type=TC372. The elution buffer was identical to the assay buffer except for the absence of DTT, FL-2 and ATP and the addition of 0.1% coating reagent (Caliper). […] Peak height was quantified and used to determine enzyme velocities.
IC50 values were calculated by non-linear least squares curve fitting of the standard IC50 equation to background-corrected cMET velocity versus compound concentration.

The next assay deals with EBC1. The experiment in a line: Inhibition of cell viability (MTS), EBC1. Conditions: Homo sapiens, EBC-1, 96 h, EBC1 cells, 96 hours incubation. The format is cell-based. On the procedure: as §1, §2

Regarding `CNC(=O)c1ccc(-c2ccc3nnc(C(F)(F)c4ccc5nc(NC(=O)C6CC6)cn5n4)n3c2)cc1F` [Compound 98, 4-(3-((2-(cyclopropanecarboxamido)imidazo[1,2-b]pyridazin-6-yl)difluoromethyl)-[1,2,4]triazolo[4,3-a]pyridin-6-yl)-2-fluoro-N-methylbenzamide], the EC50 (usually the concentration giving half of the maximal effect) was under 30 nM in the assay with MKN45 (Homo sapiens, MKN-45, 96 h); over 50 µM with A549 (Homo sapiens, A549, 96 h); under 30 nM in the assay with EBC1. Moreover, the IC50 (in general, the concentration needed to halve the response being measured) in assay [1] was under 30 nM.
Turning to `CC(c1ccc2nc(NC(=O)C3CC3)cn2n1)c1nnc2ccc(-c3cccc(C#N)c3)cn12` (centres unmarked) [Compound 57, N-(6-(1-(6-(3-cyanophenyl)-[1,2,4]triazolo[4,3-a]pyridin-3-yl)ethyl)imidazo[1,2-b]pyridazin-2-yl)cyclopropanecarboxamide], the EC50 with MKN45 (Homo sapiens, MKN-45, 96 h) is under 30 nM; with A549 (Homo sapiens, A549, 96 h) it was over 50 µM; with EBC1 it was under 30 nM. This compound yielded an IC50 in assay [1] of under 30 nM.
As to `O=C(Nc1cn2nc(C(F)(F)c3nnc4ccc(-c5cccc(F)c5)cn34)ccc2n1)C1CC1` [Compound 77, N-(6-(difluoro(6-(3-fluorophenyl)-[1,2,4]triazolo[4,3-a]pyridin-3-yl)methyl)imidazo[1,2-b]pyridazin-2-yl)cyclopropanecarboxamide], the EC50 was under 30 nM with MKN45 (Homo sapiens, MKN-45, 96 h); over 50 µM with A549 (Homo sapiens, A549, 96 h); under 30 nM in the assay on EBC1. This compound also showed an IC50 in assay [1] of under 30 nM.
On to `Cc1n[nH]c(C)c1-c1ccc2nnn(Cc3ccc4nc(NC(=O)C5CC5)cn4n3)c2c1` [Compound 20], for which the EC50 in the assay with MKN45 (Homo sapiens, MKN-45, 96 h) was 250 to 630 nM; with A549 (Homo sapiens, A549, 96 h), over 50 µM; in the assay on EBC1 it was over 200 nM. Further, in assay [1], the IC50 was 60 to 100 nM.
For `CC(c1ccc2nc(NC(=O)C3CC3)cn2n1)c1nnc2ccc(-c3ccc(C#N)cc3)cn12` (centres unmarked) [Compound 63, N-(6-(1-(6-(4-cyanophenyl)-[1,2,4]triazolo[4,3-a]pyridin-3-yl)ethyl)imidazo[1,2-b]pyridazin-2-yl)cyclopropanecarboxamide], in that order: under 30 nM, over 50 µM, under 30 nM and under 30 nM.
On to `CC(c1ccc2nc(NC(=O)C3CC3)cn2n1)c1nnc2ccc(-c3ccc(F)c(C#N)c3)cn12` (centres unmarked) [Compound 71, N-(6-(1-(6-(3-cyano-4-fluorophenyl)-[1,2,4]triazolo[4,3-a]pyridin-3-yl)ethyl)imidazo[1,2-b]pyridazin-2-yl)cyclopropanecarboxamide], for which the EC50 was under 30 nM in the assay with MKN45 (Homo sapiens, MKN-45, 96 h); over 50 µM in the assay on A549 (Homo sapiens, A549, 96 h); under 30 nM in the assay on EBC1. Besides, in assay [1], the IC50 is under 30 nM.
For the compound `NC(=O)c1cccc(-c2ccc3nnc(C(F)(F)c4ccc5nc(NC(=O)C6CC6)cn5n4)n3c2)c1` [Compound 90, 3-(3-((2-(cyclopropanecarboxamido)imidazo[1,2-b]pyridazin-6-yl)difluoromethyl)-[1,2,4]triazolo[4,3-a]pyridin-6-yl)benzamide], the EC50 was under 30 nM with MKN45 (Homo sapiens, MKN-45, 96 h); over 50 µM in the assay with A549 (Homo sapiens, A549, 96 h); under 30 nM in the assay with EBC1. The compound further came in with an IC50 in assay [1] of under 30 nM.
For `Cn1cc(-c2ccc3nnc(C(F)(F)c4ccc5nc(N)cn5n4)n3c2)cn1` [Compound 99, 6-(difluoro(6-(1-methyl-1H-pyrazol-4-yl)-[1,2,4]triazolo[4,3-a]pyridin-3-yl)methyl)imidazo[1,2-b]pyridazin-2-amine], the EC50 in the assay with MKN45 (Homo sapiens, MKN-45, 96 h) was 100 to 249 nM; with A549 (Homo sapiens, A549, 96 h), over 50 µM; in the assay with EBC1, 100 to 249 nM. Moreover, the IC50 in assay [1] is 250 to 630 nM.
As for `O=C(Nc1cn2nc(Cn3nnc4ccc(-c5cnn(C[C@H](O)CO)c5)cc43)ccc2n1)C1CC1` [Compound 22], the EC50 is over 630 nM in the assay on MKN45 (Homo sapiens, MKN-45, 96 h); over 50 µM in the assay with A549 (Homo sapiens, A549, 96 h); over 200 nM in the assay with EBC1. In addition, the IC50 in assay [1] was in the range of 60 to 100 nM.
For `CCOc1ccc(-c2ccc3nnc(C(C)c4ccc5nc(NC(=O)C6CC6)cn5n4)n3c2)cc1` (centres unmarked) [Compound 69, N-(6-(1-(6-(4-ethoxyphenyl)-[1,2,4]triazolo[4,3-a]pyridin-3-yl)ethyl)imidazo[1,2-b]pyridazin-2-yl)cyclopropanecarboxamide], in that order: under 30 nM, over 50 µM, under 30 nM and under 30 nM.
For `N#Cc1cccc(-c2ccc3nnc(C(F)(F)c4ccc5nc(NC(=O)C6CC6)cn5n4)n3c2)c1` [Compound 82, N-(6-((6-(3-cyanophenyl)-[1,2,4]triazolo[4,3-a]pyridin-3-yl)difluoromethyl)imidazo[1,2-b]pyridazin-2-yl)cyclopropanecarboxamide] the same measures were under 30 nM, over 50 µM, under 30 nM and under 30 nM.
As to `N#Cc1cc(-c2ccc3nnc(Sc4ccc5nc(NC(=O)C6CC6)cn5n4)n3c2)cnc1O` [Compound 108, N-(6-(6-(5-cyano-6-hydroxypyridin-3-yl)-[1,2,4]triazolo[4,3-a]pyridin-3-ylthio)imidazo[1,2-b]pyridazin-2-yl)cyclopropanecarboxamide], the EC50 was 8000 to 25000 nM in the assay on MKN45 (Homo sapiens, MKN-45, 96 h); over 50 µM with A549 (Homo sapiens, A549, 96 h); 8000 to 25000 nM in the assay with EBC1. The compound further registered an IC50 in assay [1] of 30 to 59 nM.
`Cn1cc(-c2ccc3nnn(Cc4ccc5nc(NC(=O)C6CC6)cn5n4)c3c2)cn1` [13 (HCl Salt), N-(6-((6-(1-methyl-1H-pyrazol-4-yl)-1H-benzo[d][1,2,3]triazol-1-yl)methyl)imidazo[1,2-b]pyridazin-2-yl)cyclopropanecarboxamide]: the EC50 in the assay on MKN45 is 100 to 249 nM; with A549, 8 to 25 µM; with EBC1 it was under 35 nM. Moreover, in assay [1], the IC50 was 30 to 59 nM.
`CC(c1ccc2nc(NC(=O)C3CC3)cn2n1)c1nnc2ccc(-c3cccc(S(C)(=O)=O)c3)cn12` (centres unmarked) [Compound 59, N-(6-(1-(6-(3-(methylsulfonyl)phenyl)-[1,2,4]triazolo[4,3-a]pyridin-3-yl)ethyl)imidazo[1,2-b]pyridazin-2-yl)cyclopropanecarboxamide]: the EC50 in the assay with MKN45 (Homo sapiens, MKN-45, 96 h) was 100 to 249 nM; with A549 (Homo sapiens, A549, 96 h), over 50 µM; in the assay with EBC1 it was 60 to 100 nM. For the same compound, in assay [1], the IC50 was under 30 nM.
For `O=C(Nc1cn2nc(Sc3nnc4ccc(-c5nn[nH]n5)cn34)ccc2n1)C1CC1` [Compound 38, N-(6-(6-(2H-tetrazol-5-yl)-[1,2,4]triazolo[4,3-a]pyridin-3-ylthio)imidazo[1,2-b]pyridazin-2-yl)cyclopropanecarboxamide] the same measures were over 630 nM, over 50 µM, over 200 nM and over 100 nM.
For `CC(c1ccc2nc(NC(=O)C3CC3)cn2n1)c1nnc2ccc(-c3cccc(N(C)C)c3)cn12` (centres unmarked) [Compound 73, N-(6-(1-(6-(3-(dimethylamino)phenyl)-[1,2,4]triazolo[4,3-a]pyridin-3-yl)ethyl)imidazo[1,2-b]pyridazin-2-yl)cyclopropanecarboxamide], in that order: under 30 nM, 8 to 25 µM, under 30 nM and under 30 nM.
For `C[C@H](c1ccc2nc(NC(=O)C3CC3)cn2n1)c1nnc2ccc(-c3cnn(C)c3)cn12` [Compound 51, (R)—N-(6-(1-(6-(1-methyl-1H-pyrazol-4-yl)-[1,2,4]triazolo[4,3-a]pyridin-3-yl)ethyl)imidazo[1,2-b]pyridazin-2-yl)cyclopropanecarboxamide], in that order: over 100 nM, over 50 µM, over 100 nM and over 100 nM.
